Measured values reported in ChEMBL document CHEMBL5108064, “Comparative Analysis of Small-Molecule LIMK1/2 Inhibitors: Chemical Synthesis, Biochemistry, and Cellular Activity” (J Med Chem, 2022).

Assay: Volume of distribution at steady state in Sprague-Dawley rat at 0.5 mg/kg, iv by LCMS/MS analysis
Assay type: ADME, organism-based
Details: in vivo, read-out: Vdss

Vd: 0.5 L/kg
Compound: Cc1c[nH]c2ncnc(N3CCC(CN)(C(=O)Nc4cccc(OC(=O)N(C)C)c4)CC3)c12 [LX-7101]
